Results as given in US20030181436A1, “Treatment for AIDS, HIV, and other related diseases and compounds for use therewith” (priority 2001, published 2003).

Tests used:
Assay type in all cases: cell-based
HIV = experiment: PBMC time of addition assay
Text: FIGS. 18 and 19 show the results of the time of addition assay with the K and Z compound. In time of addition assays the timed addition of compounds after initial infection allows the identification of specific stages of virus replication. This is seen with the positive control compound AZT. AZT is a reverse transcriptase inhibitor. […] Thus it has an antiviral target that is occurring after completion of reverse transcription. […] In general since this time of addition uses multiple rounds of infection in the PBMCs versus a single round in cell lines systems, lower concentrations of compound will often shift the curve to the left. This is seen in FIG. 18.

[1] = tested on: HIV-1 attachment to HeLa CD4 LTR B-gal cells; experiment: Inhibition of attachment assay; conditions: for IC50: attachment assay
Description: (§1) The attachment assay was performed with the HeLa CD4 LTR B-gal cells available from the AIDS Research and Reference Reagent Repository. […] HeLa CD4 LTR B-gal cells express cell surface CD4 and contain an LTR B-galactosidase reporter construct. Upon infection either the Tat protein incorporated into the virion or new Tat produced following virus integration and transcription trans-activate the LTR B-gal reporter, leading to expression of the B-galactosidase enzyme. HeLa CD4 LTR B-gal cells are routinely cultured with the required selection antibiotics and scrended for mycoplasma contamination. Twenty-four h prior to initiation of the assay cells were trypsinized, counted and 1×10^4 cells placed in a 0.2 cm well in media without selection antibiotics. Media was removed and compound media placed on the cells and incubated for 15 to 30 min at 37° C. A known titer of virus was then added to the wells and the incubation continued for 1 h. At the end of the incubation the wells were washed 6 times with media and the culture continued for 48 h. At 48 h the wells were washed one time with PBS and B-galactosidase enzyme expression determined by chemiluminescence per manufacturers instructions (Tropix Gal-screen TM, Tropix, Bedford, Mass.). Compound toxicity was monitored on sister plates using MTS dye reduction. (See Tables 14 through 16 and FIGS. 21 and 22).

HeLa CD4 LTR B-gal cells = experiment: Attachment assay, toxicity on sister plates by MTS; conditions: for TC50: attachment assay
Description: as §1, with “reduction.” for “reduction. (See Tables 14 through 16 and FIGS. 21 and 22).”

[2] = tested on: CEM-SS cells chronically infected with SK-1; experiment: Chronically infected CEM/SK-1 cell assay, cell viability by MTS
Description: At assay termination the assay plates were stained with the soluble tetrazolium-based dye MTS (CellTiter® Reagent, Promega) to determined cell viability and quantify compound toxicity. […] At termination of the assay 20 μL of MTS reagent was added per well. The wells were incubated for 4 h at 37° C., 5% CO2. Adhesive plate scalers were used in place of the lids, the sealed plate was inverted several times to mix the soluble formazan product and the plate was read spectrophotometrically at 490 nm with a 650 nm reference wavelength on a Molecular Devices Vmax plate reader.
The chronically infected CEM cells were cultured and the assay performed in RPMI 1640 supplemental with 10% Fetal Bovine Serum (heat inactivated), 2 mM L-glutamine, 100 U/mL penicillin, […] and 10 ug/mL gentamycin. On day 3 cell-free supernatants were collected and cell viability measured by MTS dye reduction.

## Potassium Iodiscorbate [Compound K]
HIV; 6.4 μg/ml, added at 4 h
  suppression of virus replication: no inhibition
HIV; 6.4 μg/ml, added at 9 h
  suppression of virus replication: 71%
HIV; 64 μg/ml, added 49 h post infection
  suppression of virus replication: 75%
HIV; 64 μg/ml, added at 4 h
  suppression of virus replication: 35%
HIV; 64 μg/ml, added at 9 h
  suppression of virus replication: 87%

## Zinc Iodiscorbate [Compound Z]
[1]
  efficacy in HeLa CD4 LTR β-gal attachment assay: inactive
  IC50: >100 µg/mL
[1]; 0.32 μG/Ml
  % VC: 90.2%
[1]; 1 μG/Ml
  % VC: 94.8%
[1]; 3.2 μG/Ml
  % VC: 74.5%
[1]; 10 μG/Ml
  % VC: 62.4%
[1]; 32 μG/Ml
  % VC: 54.4%
[1]; 100 μG/Ml
  % VC: 66.8%
[1]; listed as COMPOUND Z
  IC50: IC50 (μG/mL) = >100 μg/mL
HeLa CD4 LTR B-gal cells; 0.32 μG/Ml
  TOXICITY VALUES (Colt Titer) MEAN: 0.989 O. D.
HeLa CD4 LTR B-gal cells; 1 μG/Ml
  TOXICITY VALUES (Colt Titer) MEAN: 0.989 O. D.
HeLa CD4 LTR B-gal cells; 3.2 μG/Ml
  TOXICITY VALUES (Colt Titer) MEAN: 0.989 O. D.
HeLa CD4 LTR B-gal cells; 10 μG/Ml
  TOXICITY VALUES (Colt Titer) MEAN: 0.989 O. D.
HeLa CD4 LTR B-gal cells; 32 μG/Ml
  TOXICITY VALUES (Colt Titer) MEAN: 0.989 O. D.
HeLa CD4 LTR B-gal cells; 100 μG/Ml
  TOXICITY VALUES (Colt Titer) MEAN: 0.989 O. D.
HeLa CD4 LTR B-gal cells
  TC50: greater than 100 μg/mL
HeLa CD4 LTR B-gal cells; listed as COMPOUND Z
  TC50: TC50 (μG/mL) + >100 μg/mL
[2]; 0.625 μG/Ml
  TOXICITY VALUES (MTS) MEAN: 1.757 O. D.
[2]; 2 μG/Ml
  TOXICITY VALUES (MTS) MEAN: 1.655 O. D.
[2]; 6.25 μG/Ml
  % CC: 35.8%
  TOXICITY VALUES (MTS) MEAN: 0.631 O. D.
[2]; 20 μG/Ml
  % CC: 31.4%
  TOXICITY VALUES (MTS) MEAN: 0.553 O. D.
[2]; 62.5 μG/Ml
  % CC: 17.1%
  TOXICITY VALUES (MTS) MEAN: 0.301 O. D.
[2]; 200 μG/Ml
  % CC: 0.6%
  TOXICITY VALUES (MTS) MEAN: 0.011 O. D.
[2]; CEMSK1 chronic infection
  TC50: ITC50 (ug/ml) = 5.22
